Positions of bridges follow the written chain, without caps; N, C: chain ends. Non-standard residues stand in square brackets, D forms with d. Residues, ends and D or L forms follow the SMILES beside them. Agb = N=C(N)NCC[C@H](N)C(=O)O
Molecular target: human Nav1.7 (Homo sapiens, UniProt Q15858)
Experiment: cell-based
Details: for IC50: whole-cell voltage clamp, HEK 293 cells, read-out: hNav1.7 IC50
Experimental: HEK-293 cells stably expressing human Nav1.1, Nav1.4, Nav1.5, Nav1.6 and Nav1.7 were obtained from Dr. Chris Lossin. Rat Nav1.3 expressing HEK-293 cells were from Dr. Steven Waxman (Yale University, New Haven, CT). These cell lines were cultured in complete DMEM supplemented with 10% FBS, 1% penicillin/streptomycin, and G418. The human Nav1.8 channel (co-expressing with human Navβ1 and Navβ2 subunits) and the Nav1.9 channel (co-expressing with human Trkb, Navβ1, and Navβ2 subunits) were obtained from Icagen (Durham, NC). hNav1.8 cells cultured with G418 (0.4 mg/mL) and puromycin ([…]/mL) and hNav1.9 cells were cultured with G418 (0.4 mg/mL), puromycin ([…]), and zeocin (0.05 mg/mL). Human Nav1.2 were expressed transiently by transfection of the hNav1.2 cDNA (from Dr. Alan L. Goldin, UC Irvine, CA) into HEK-293 cells.
Whole-cell patch-clamp experiments on recombinant channels were conducted manually at room temperature (22-24° C.) using an EPC-10 amplifier (HEKA Electronik, Lambrecht/Pfalz, Germany). Cells were trypsinized and plated onto poly-1-lysine-coated coverslips. All recordings were done in normal Ringer external bath solution containing (in mM) 160 NaCl, 4.5 KCl, 2 CaCl2), 1 MgCl2, 10 HEPES (pH 7.4 and 305 mOsm) as. Patch pipettes were pulled from soda lime glass (micro-hematocrit tubes, Kimble Chase, Rochester, NY) and had resistances of 2-3 MQ when filled with CsF-based internal solution containing (in mM) 10 NaF, 110 CsF, 20 CsCl, 10 HEPES, 2 EGTA, (pH 7.4, 310 mOsm). Data acquisition and analysis were performed with Pulse-PulseFit (HEKA Electronik GmbH, Germany), IgorPro (WaveMetrics, Portland, OR), and Origin 9.0 software (OriginLab Corporation, Northampton, MA). Cells were held at −90 mV and voltage stepped to −120 mV for 200 ms before depolarizing to −10 mV for 50 msec to elicit inward currents. Control test currents were monitored for 5-10 min to ensure that the amplitude and kinetics of the response were stable. Series resistance was compensated to 80-90% and linear leak currents and capacitance artefacts were corrected using a P/4 subtraction method. Pulse interval was 0.1 Hz and peptides were applied to individual cells using a glass transfer pipette directly into the recording bath. For measuring inhibition, currents were allowed to saturate with repeated pulsing before addition of subsequent doses. IC50 values were derived from measurements performed on individual cells that were tested with at least three or more concentrations of each peptide.

human Nav1.7, sequence (Q15858 whole entry): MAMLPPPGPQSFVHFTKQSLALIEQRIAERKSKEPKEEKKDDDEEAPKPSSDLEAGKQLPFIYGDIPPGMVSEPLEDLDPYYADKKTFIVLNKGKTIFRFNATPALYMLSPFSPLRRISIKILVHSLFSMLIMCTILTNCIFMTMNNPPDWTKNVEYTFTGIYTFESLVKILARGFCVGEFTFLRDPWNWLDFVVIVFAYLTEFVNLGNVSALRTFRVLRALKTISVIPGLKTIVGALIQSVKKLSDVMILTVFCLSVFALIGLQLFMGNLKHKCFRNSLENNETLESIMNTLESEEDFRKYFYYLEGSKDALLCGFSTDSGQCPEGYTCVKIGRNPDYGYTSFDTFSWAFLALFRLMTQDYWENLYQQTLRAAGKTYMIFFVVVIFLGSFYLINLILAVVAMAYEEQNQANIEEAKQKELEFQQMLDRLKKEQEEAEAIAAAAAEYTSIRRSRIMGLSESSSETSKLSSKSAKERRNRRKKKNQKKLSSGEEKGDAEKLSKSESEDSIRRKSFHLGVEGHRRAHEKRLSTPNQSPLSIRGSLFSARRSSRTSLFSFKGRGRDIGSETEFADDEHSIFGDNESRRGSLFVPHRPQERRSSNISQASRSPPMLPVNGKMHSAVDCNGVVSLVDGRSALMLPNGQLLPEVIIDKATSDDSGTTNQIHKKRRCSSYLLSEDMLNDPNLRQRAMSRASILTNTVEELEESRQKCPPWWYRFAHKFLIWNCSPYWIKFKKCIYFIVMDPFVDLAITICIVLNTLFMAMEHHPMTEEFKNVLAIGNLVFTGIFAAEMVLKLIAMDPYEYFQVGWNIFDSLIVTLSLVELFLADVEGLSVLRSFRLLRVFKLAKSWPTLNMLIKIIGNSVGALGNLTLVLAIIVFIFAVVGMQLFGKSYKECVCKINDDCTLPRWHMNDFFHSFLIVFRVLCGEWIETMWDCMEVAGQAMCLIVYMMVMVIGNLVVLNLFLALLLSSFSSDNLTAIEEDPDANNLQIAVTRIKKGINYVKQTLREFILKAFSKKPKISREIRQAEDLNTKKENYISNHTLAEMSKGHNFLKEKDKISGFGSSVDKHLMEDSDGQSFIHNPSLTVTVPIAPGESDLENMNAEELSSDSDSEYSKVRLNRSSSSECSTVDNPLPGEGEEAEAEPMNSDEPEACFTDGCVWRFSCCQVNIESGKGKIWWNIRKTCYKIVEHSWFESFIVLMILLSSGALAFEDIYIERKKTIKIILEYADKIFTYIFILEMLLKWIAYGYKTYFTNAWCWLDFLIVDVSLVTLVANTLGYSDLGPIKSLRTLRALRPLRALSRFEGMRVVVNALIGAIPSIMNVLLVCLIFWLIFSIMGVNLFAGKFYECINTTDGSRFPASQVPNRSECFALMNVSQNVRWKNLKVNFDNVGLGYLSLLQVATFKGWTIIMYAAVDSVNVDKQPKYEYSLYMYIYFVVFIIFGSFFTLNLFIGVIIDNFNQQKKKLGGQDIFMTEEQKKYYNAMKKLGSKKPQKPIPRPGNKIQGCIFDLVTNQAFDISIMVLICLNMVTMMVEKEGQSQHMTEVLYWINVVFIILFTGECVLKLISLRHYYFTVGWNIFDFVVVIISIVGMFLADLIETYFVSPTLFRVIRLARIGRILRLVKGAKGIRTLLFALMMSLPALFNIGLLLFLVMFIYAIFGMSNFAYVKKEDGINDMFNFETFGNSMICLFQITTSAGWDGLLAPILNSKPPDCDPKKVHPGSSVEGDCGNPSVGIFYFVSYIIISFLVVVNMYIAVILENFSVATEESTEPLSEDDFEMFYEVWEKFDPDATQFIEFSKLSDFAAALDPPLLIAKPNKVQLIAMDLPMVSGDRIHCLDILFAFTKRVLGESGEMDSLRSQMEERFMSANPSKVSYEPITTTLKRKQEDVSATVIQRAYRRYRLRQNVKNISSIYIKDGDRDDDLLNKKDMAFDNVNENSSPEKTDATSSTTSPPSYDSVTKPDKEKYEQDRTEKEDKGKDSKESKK

For `CC(C)C[C@@H]1NC(=O)CNC(=O)[C@H](CCC(=O)O)NC(=O)[C@@H]2CSSC[C@H](NC(=O)[C@@H](N)Cc3ccc(O)cc3)C(=O)N[C@@H](CCC(N)=O)C(=O)N[C@@H](CCCCN)C(=O)N[C@@H](C)C(=O)N[C@@H](Cc3ccccc3)C(=O)N[C@@H](Cc3c[nH]c4ccccc34)C(=O)N[C@@H]([C@@H](C)O)C(=O)N[C@H]3CSSC[C@H](NC(=O)[C@H](CCCNC(=N)N)NC1=O)C(=O)N[C@@H](CCNC(=N)N)C(=O)N[C@@H](CC(C)C)C(=O)N[C@@H](Cc1c[nH]c4ccccc14)C(=O)N[C@H](C(=O)N[C@@H](CCCCN)C(=O)N[C@@H](CCCCN)C(=O)N[C@@H](CCC(=O)O)C(=O)N[C@@H](CC(C)C)C(=O)N[C@@H](Cc1c[nH]c4ccccc14)C(N)=O)CSSC[C@H](NC(=O)[C@H](CCCCN)NC(=O)[C@H](CCCNC(=N)N)NC(=O)[C@H](CCC(=O)O)NC(=O)[C@H](CO)NC(=O)[C@H](CC(=O)O)NC3=O)C(=O)N2` [PTx2-2954], the “effect on hNav1.7 currents” value (at 5 μM) was “no effect”.
Work on `CC(C)C[C@@H]1NC(=O)CNC(=O)[C@H](CCC(=O)O)NC(=O)[C@@H]2CSSC[C@H](NC(=O)[C@@H](N)Cc3ccc(O)cc3)C(=O)N[C@@H](CCC(N)=O)C(=O)N[C@@H](CCCCN)C(=O)N[C@@H](C)C(=O)N[C@@H](Cc3ccccc3)C(=O)N[C@@H](Cc3c[nH]c4ccccc34)C(=O)N[C@@H]([C@@H](C)O)C(=O)N[C@H]3CSSC[C@H](NC(=O)[C@H](CCCNC(=N)N)NC1=O)C(=O)N[C@@H](CCNC(=N)N)C(=O)N[C@@H](CC(C)C)C(=O)N[C@@H](Cc1c[nH]c4ccccc14)C(=O)N[C@H](C(=O)N[C@@H](CCCNC(=N)N)C(=O)N[C@@H](CCCCN)C(=O)N[C@@H](CCC(=O)O)C(=O)N[C@@H](CC(C)C)C(=O)N[C@@H](Cc1c[nH]c4ccccc14)C(N)=O)CSSC[C@H](NC(=O)[C@H](CCCCN)NC(=O)[C@H](CCCNC(=N)N)NC(=O)[C@H](CCC(=O)O)NC(=O)[C@H](CO)NC(=O)[C@H](CC(=O)O)NC3=O)C(=O)N2` [PTx2-2955] yielded an IC50 of 185 nM.
Work on `CC(C)C[C@@H]1NC(=O)CNC(=O)[C@H](CCC(=O)O)NC(=O)[C@@H]2CSSC[C@H](NC(=O)[C@@H](N)Cc3ccc(O)cc3)C(=O)N[C@@H](CCC(N)=O)C(=O)N[C@@H](CCCCN)C(=O)N[C@@H](C)C(=O)N[C@@H](Cc3ccccc3)C(=O)N[C@@H](Cc3c[nH]c4ccccc34)C(=O)N[C@@H]([C@@H](C)O)C(=O)N[C@H]3CSSC[C@H](NC(=O)[C@H](CCCNC(=N)N)NC1=O)C(=O)N[C@@H](CCNC(=N)N)C(=O)N[C@@H](CC(C)C)C(=O)N[C@@H](Cc1c[nH]c4ccccc14)C(=O)N[C@H](C(=O)N[C@@H](CCCNC(=N)N)C(=O)N[C@@H](CCCCN)C(=O)N[C@@H](CCC(=O)O)C(=O)N[C@@H](CC(C)C)C(=O)N[C@@H](Cc1c[nH]c4ccccc14)C(N)=O)CSSC[C@H](NC(=O)[C@H](CCCCN)NC(=O)[C@H](CCCNC(=N)N)NC(=O)[C@H](C)NC(=O)[C@H](CO)NC(=O)[C@H](CC(=O)O)NC3=O)C(=O)N2` [PTx2-3063] (H-YCQKAFWTCDSARKCCEGLRC[Agb]LWCRKELW-NH2; disulfide 2-16, 9-21, 15-25) yielded an IC50 of 154 nM.

From patent US20260001922A1, “PEPTIDES TARGETING SODIUM CHANNELS TO TREAT PAIN” (priority 2022, published 2026)
